Results on two compounds are retold here after patent publication US5976783A, “Bis-maleimido cross-linking agents” (Boehringer Mannheim Corporation, priority 1997, dated 1999).

Series [1] can be described thus: stability of 4-maleimidobutyraldehyde on work-up. In kind it is physicochemical. As to conditions: work-up needed low temperatures (0° C.) and complete exclusion of oxygen. The procedure: 4-Maleimidobutyraldehyde diethylacetal (2 g, 8.29 mmol) in tetrahydrofuran (20 ml) and water (0.5 ml) was stirred under argon and DOWEX 50X8 ion exchange resin (H^+, 2 g, ® Dow Chemical Co.) was added. After 12 hours stirring at room temperature, the solvent was decanted, dried (MgSO4) and evaporated in vacuo to afford 4-maleimidobutyraldehyde (formula III) as a yellow oil which rapidly solidified on standing (1.38 g, 99%); TLC Rf=0.4, ethyl acetate/hexane 1:1.

The next series concerns ICE protease. As to conditions: See Nature 375:78-81 (1995); cited from earlier work.

Take `O=CCCCN1C(=O)C=CC1=O` [4-maleimidobutyraldehyde]: the stability result in series [1] is reported as “extremely unstable”. For the compound `CC(=O)N[C@@H](Cc1ccc(O)cc1)C(=O)N[C@H](C(=O)N[C@@H](C)C(=O)N[C@@H](CC(=O)O)C(=O)CCl)C(C)C` [Ac-Tyr-Val-Ala-Asp-*], in the series on ICE protease, the “inhibition of ICE protease” value is “potent inhibitor”.
